Reference: patent publication US9199943B2, “2-(poly-substituted aryl)-6-amino-5-halo-4-pyrimidinecarboxylic acids and their use as herbicides” (Dow AgroSciences, LLC., priority 2006, dated 2015)

Tests used:
Assay type in all cases: in vivo
[1] = system: ABUTH = velvetleaf (Abutilon theophrasti); test: General postemergence herbicidal activity, velvetleaf; details: Abutilon theophrasti, post-emergence, 336 h; post-emergent, 140 g ai/ha, visual score after 14 days (0 no injury, 100 complete kill)
Experimental: (§1) Seeds or nutlets of the desired test plant species were planted in Sun Gro MetroMix® 306 planting mixture, which typically has a pH of 6.0 to 6.8 and an organic matter content of about 30 percent, in plastic pots with a surface area of 64 square centimeters. When required to ensure good germination and healthy plants, a fungicide treatment and/or other chemical or physical treatment was applied. The plants were grown for 7-21 days in a greenhouse with an approximate 15 hour photoperiod which was maintained at about 23-29° C. during the day and 22-28° C. during the night. Nutrients and water were added on a regular basis and supplemental lighting was provided with overhead metal halide 1000-Watt lamps as necessary. The plants were employed for testing when they reached the first or second true leaf stage.
(§2) A weighed amount, determined by the highest rate to be tested, of each test compound was placed in a 25 mL glass vial and was dissolved in 4 mL of a 97:3 v/v (volume/volume) mixture of acetone and dimethyl sulfoxide (DMSO) to obtain concentrated stock solutions. […] The concentrated stock solutions obtained were diluted with 20 mL of an aqueous mixture containing acetone, water, isopropyl alcohol, DMSO, Atplus 411F crop oil concentrate, and Triton X-155 surfactant in a 48.5:39:10:1.5:1.0:0.02 v/v ratio to obtain spray solutions containing the highest application rates. Additional application rates were obtained by serial dilution of 12 mL of the high rate solution into a solution containing 2 mL of 97:3 v/v (volume/volume) mixture of acetone and dimethyl sulfoxide (DMSO) and 10 mL of an aqueous mixture containing acetone, water, isopropyl alcohol, DMSO, Atplus 411F crop oil concentrate, and Triton X-155 surfactant in a 48.5:39:10:1.5:1.0:0.02 v/v ratio to obtain ½×, ¼×, ⅛× and 1/16× rates of the high rate. Compound requirements are based upon a 12 mL application volume at a rate of 187 L/ha. Formulated compounds were applied to the plant material with an overhead Mandel track sprayer equipped with a 8002E nozzles calibrated to deliver 187 L/ha over an application area of 0.503 square meters at a spray height of 18 inches (43 cm) above the average plant canopy height. Control plants were sprayed in the same manner with the solvent blank.
(§3) The treated plants and control plants were placed in a greenhouse as described above and watered by sub-irrigation to prevent wash-off of the test compounds. After 14 days, the condition of the test plants as compared with that of the untreated plants was determined visually and scored on a scale of 0 to 100 percent where 0 corresponds to no injury and 100 corresponds to complete kill.
(§4) By applying the well-accepted probit analysis as described by J. Berkson in Journal of the […], 48, 565 (1953) and by D. Finney in “Probit Analysis” Cambridge University Press (1952), the above data can be used to calculate GR50 and GR80 values, which are defined as growth reduction factors that correspond to the effective dose of herbicide required to kill or control 50 percent or 80 percent, respectively, of a target plant.

[2] = system: HELAN = sunflower (Helainthus annuus); test: General postemergence herbicidal activity, sunflower; details: post-emergence, 336 h; post-emergent, 140 g ai/ha, visual score after 14 days (0 no injury, 100 complete kill)
Experimental: as §1, §2, §3, §4

[3] = system: SCPJU = Scirpus juncoides; test: Herbicidal activity in transplanted paddy rice, Scirpus juncoides; details: Schoenoplectiella juncoides, 480 h, water-injected paddy, after 20-22 days; for pest or weed control at 17.5 g/ha: 17.5 g ai/ha; for pest or weed control at 70 g/ha: 70 g ai/ha; for pest or weed control at 140 g/ha: 140 g ai/ha; for pest or weed control at 35 g/ha: 35 g ai/ha
Experimental: (§5) Weed seeds or nutlets of the desired test plant species were planted in puddled soil (mud) prepared by mixing a non-sterilized mineral soil (28 percent silt, 18 percent clay, and 54 percent sand, with a pH of about 7.3 to 7.8 and an organic matter content of about 1.0 percent) and water at a ratio of 100 kg of soil to 19 L of water. The prepared mud was dispensed in 250 mL aliquots into 480 mL non-perforated plastic pots with a surface area of 91.6 square centimeters leaving a headspace of 3 centimeters in each pot. Rice seeds were planted in Sun Gro MetroMix® 306 planting mixture, which typically has a pH of 6.0 to 6.8 and an organic matter content of about 30 percent, in plastic plug trays. Seedlings at the second or third leaf stage of growth were transplanted into 650 mL of mud contained in 960 mL non-perforated plastic pots with a surface area of 91.6 square centimeters 4 days prior to herbicide application. The paddy was created by filling the 3 centimeter headspace of the pots with water. When required to ensure good germination and healthy plants, a fungicide treatment and/or other chemical or physical treatment was applied. The plants were grown for 4-14 days in a greenhouse with an approximate 14 hour photoperiod which was maintained at about 29° C. during the day and 26° C. during the night. Nutrients were added as Osmocote (17:6:10, N:P:K+minor nutrients) at 2 g (grams) per cup. Water was added on a regular basis to maintain the paddy flood, and supplemental lighting was provided with overhead metal halide 1000-Watt lamps as necessary. The plants were employed for testing when they reached the second or third true leaf stage. A weighed amount, determined by the highest rate to be tested, of each test compound was placed in a 120 mL glass vial and was dissolved in 20 mL of acetone to obtain concentrated stock solutions. […] The concentrated stock solutions obtained were diluted with 20 mL of an aqueous mixture containing 0.01% Tween 20 (v/v). Application rates of ½×, ¼×, ⅛× and 1/16× of the high rate were obtained by injecting an appropriate amount of the stock solution into the aqueous layer of the paddy. Control plants were treated in the same manner with the solvent blank. The treated plants and control plants were placed in a greenhouse as described above and water was added as needed to maintain a paddy flood. After 20-22 days, the condition of the test plants as compared with that of the untreated plants was determined visually and scored on a scale of 0 to 100 percent where 0 corresponds to no injury and 100 corresponds to complete kill.

[4] = system: CYPDI = Cyperus difformis; test: Herbicidal activity in transplanted paddy rice, Cyperus difformis; details: 480 h, water-injected paddy, after 20-22 days; for pest or weed control at 17.5 g/ha: 17.5 g ai/ha; for pest or weed control at 70 g/ha: 70 g ai/ha; for pest or weed control at 140 g/ha: 140 g ai/ha; for pest or weed control at 35 g/ha: 35 g ai/ha
Experimental: as §5

[5] = system: MOOVA = Monochoria vaginalis; test: Herbicidal activity in transplanted paddy rice, Monochoria vaginalis; details: Pontederia vaginalis, 480 h, water-injected paddy, after 20-22 days; for pest or weed control at 17.5 g/ha: 17.5 g ai/ha; for pest or weed control at 70 g/ha: 70 g ai/ha; for pest or weed control at 140 g/ha: 140 g ai/ha; for pest or weed control at 35 g/ha: 35 g ai/ha
Experimental: as §5

Row | SMILES | pest or weed control at 140 g/ha [1] | pest or weed control at 140 g/ha [2] | pest or weed control at 17.5 g/ha [4] | pest or weed control at 17.5 g/ha [5] | also measured
1 | CCOc1c(Cl)ccc(-c2nc(N)c(Cl)c(C(=O)OC)n2)c1F [Compound 1, 6-amino-5-chloro-2-(4-chloro-3-ethoxy-2-fluorophenyl)-pyrimidine-4-carboxylic acid methyl ester] | 100% | 100% | 95% | 100% | pest or weed control at 17.5 g/ha [3]: 50%
2 | COC(=O)c1nc(-c2c(F)cc(Cl)c(OC)c2F)nc(N)c1Cl [Compound 2, 6-amino-5-chloro-2-(4-chloro-2,6-difluoro-3-methoxy-phenyl)pyrimidine-4-carboxylic acid methyl ester] | 90% | 100% |  |  | pest or weed control at 70 g/ha [3]: 20%; pest or weed control at 70 g/ha [4]: 75%; pest or weed control at 70 g/ha [5]: 100%
3 | COC(=O)c1nc(-c2ccc(Cl)c(OC)c2F)nc(N)c1Cl [Compound 3, 6-amino-5-chloro-2-(4-chloro-2-fluoro-3-methoxyphenyl)-pyrimidine-4-carboxylic acid methyl ester] | 100% | 100% | 99% | 100% | pest or weed control at 17.5 g/ha [3]: 80%
4 | COC(=O)c1nc(-c2ccc(Cl)c(OC)c2Cl)nc(N)c1Cl [Compound 6, 6-Amino-5-chloro-2-(2,4-dichloro-3-methoxyphenyl)pyrimidine-4-carboxylic acid methyl ester] | 95% | 100% | 90% | 100% | 
5 | COC(=O)c1nc(-c2ccc(Cl)c(C(F)F)c2F)nc(N)c1Cl [Compound 7, 6-Amino-5-chloro-2-(4-chloro-3-difluoromethyl-2-fluorophenyl)pyrimidine-4-carboxylic acid methyl ester] | 80% | 100% |  |  | pest or weed control at 140 g/ha [3]: 90%; pest or weed control at 140 g/ha [4]: 100%; pest or weed control at 140 g/ha [5]: 100%
6 | COC(=O)c1nc(-c2ccc(Cl)c(N(C)C)c2F)nc(N)c1Cl [Compound 8, 6-Amino-5-chloro-2-(4-chloro-3-dimethylamino-2-fluorophenyl)pyrimidine-4-carboxylic acid methyl ester] | 100% | 100% |  |  | pest or weed control at 35 g/ha [3]: 10%; pest or weed control at 35 g/ha [4]: 95%; pest or weed control at 35 g/ha [5]: 100%
7 | COC(=O)c1nc(-c2ccc3c(c2F)OCO3)nc(N)c1Cl [Compound 9, 6-Amino-5-chloro-2-(4-fluorobenzo[1,3]dioxol-5-yl)pyrimidine-4-carboxylic acid methyl ester] | 95% | 100% |  |  | pest or weed control at 35 g/ha [3]: 70%; pest or weed control at 35 g/ha [4]: 100%; pest or weed control at 35 g/ha [5]: 99%
8 | COC(=O)c1nc(-c2ccc(Cl)c(OCC(F)F)c2F)nc(N)c1Cl [Compound 10, 6-Amino-5-chloro-2-[4-chloro-3-(2,2-difluoroethoxy)-2-fluorophenyl]-pyrimidine-4-carboxylic acid methyl ester] | 75% | 80% |  |  | pest or weed control at 140 g/ha [3]: 40%; pest or weed control at 140 g/ha [4]: 95%; pest or weed control at 140 g/ha [5]: 100%
9 | COC(=O)c1nc(-c2ccc(Cl)c(OC)c2F)nc(N)c1Br [Compound 13, 6-amino-5-bromo-2-(4-chloro-2-fluoro-3-methoxyphenyl)-pyrimidine-4-carboxylic acid methyl ester] | 100% | 100% |  |  | pest or weed control at 70 g/ha [3]: 60%; pest or weed control at 70 g/ha [4]: 85%; pest or weed control at 70 g/ha [5]: 100%
